Results published in patent publication US20060057071A1, “Paramagnetic complexes with pendant crown compounds showing improved targeting-specificity as MRI contrast agents” (priority 2004, published 2006).
Like-named read-outs stand apart in the source and are kept apart here.

Experiments:
[1] = 1H NMRD profiles (water proton relaxivity); assay type: physicochemical; conditions: for D / TR / TV / a / q / r / Δ^2: 25° C., pH 6.9, fits of NMRD profile and 17O NMR
From the text: (§1) Measuring the relaxation rates of an abundant nuclear species as a function of the magnetic field over a wide range is called relaxometry. A relaxometry profile is a plot of the nuclear magnetic relaxation rate, usually 1/T1, as a function of the Larmor frequency or the magnetic field. This profile is also called a Nuclear Magnetic Resonance Dispersion (NMRD) profile. Compared with the NMRD profile, the prominent advantage of the ^17O NMR technique is that it allows the accurate determination of the water exchange rate 1/TM. This is a consequence of the oxygen nucleus being closer to the paramagnetic centre when bound in the inner-sphere, wherein the outer-sphere contributions to the relaxation rates are negligibly small. With the help of NMRD profiles, ^17O NMR measurements, and the Soloman-Bloemnergen-Morgan theory, several important parameters, such as TM, TR, TV, Δ^2 and rH, can be measured.
Water proton nuclear magnetic resonance dispersion NMRD profile is used to record the longitudinal water proton relaxation rates as a function of magnetic fields. The method is, in principle, sensitive to all of the parameters that influence relaxivity. The ^1H NMRD profiles were measured over a continuum of magnetic field strength from 0.00024 to 0.24 T (corresponding to 0.01-10 MHz proton Larmor frequency, 1 T≈41.7 MHz) on a Spinmaster FFC (Stelar, Mede (PV)), which is a fast field-cycling NMR relaxometer installed at the LIMA Laboratory (Bioindustry Park, Ivrea (TO), Italy). The relaxometer worked under complete control with an absolute uncertainty in 1/T1 of ±2%. The NMRD profiles were measured using 1-2 mM solutions of the complexes.

[2] = Variable-temperature 17O NMR transverse relaxation rate; assay type: physicochemical; conditions: for TM: pH 6.9, derived from VT 17O NMR spectroscopy; for exchange lifetime TM of inner-sphere coordinated water: 298 K (25° C.), 2.12 T; for q, inner-sphere coordinated water molecules: from NMRD profile / 17O NMR data, near neutral pH
From the text: as §1
The variable-temperature ^17O NMR measurements were recorded on a JEOL EX-90 (2.1 T) spectrometer that was equipped with a 5 mm probe, by using a D2O external lock. The experimental settings were: spectral width of 10000 Hz, pulse width of 7 μs, acquisition time of 10 ms, 1000 scans, and no sample spinning. Solutions containing 2.6% of ^17O isotope were used. The observed transverse relaxation rates (R2obs^O) were calculated from the signal width at half height.

[3] = cited from earlier work
[4] = tested on: kidney cortex; assay: In vivo MRI, renal intensity enhancement; design: species or system rat; conditions: for maximal renal intensity enhancement (IE): 0.1 mmol/kg (standard dosage), rat, first few minutes after administration
Experimental: (§2) To study the MRI contrast and biodistribution behavior of gadolinium complexes […] pendant crown ethers, experiments were performed using male Sprague-Dawley (SD) rats that weighted 150-180 g, and were housed at the Wuhan Institute of Physical and Mathematics of the Chinese Academy of Sciences (Wuhan, Hubei Province, China). All procedures conformed to the institutional guidelines for animal welfare. The rat was injected via the femoral vein with 1 mL saline solution of GdL1 in concentrations of 0.1, 0.033, and 0.02 mM/kg, which are the standard dosage, one third and one fifth of the standard dosage used in clinic currently. MR imaging was performed on a 4.7 T Bruker BIO-SPEC-47/30 MRI scanner with a custom spiral surface coil. The animal was scanned in the prone position in the MRI experiment. […] The total duration of the dynamic scanning lasted up to 400 min after the administration, with an image every 4 min. A water tube was placed in the field of view as a phantom reference. The intensity enhancement (IE) of the region of interest (RI) at time point t is expressed by IE=100% (RI(t)-RI(0))/RI(0) where RI(t) corresponds to the normalized signal intensity as measured at time point, t and RI(0) is the normalized signal intensity precontrast.

[5] = tested on: liver parenchyma; assay: In vivo MRI, hepatic intensity enhancement; design: species or system rat; conditions: for maximal hepatic IE: 0.1 mmol/kg (standard dosage), rat
Experimental: as §2

[6] = 1H NMRD profiles (water proton relaxivity); assay type: physicochemical; conditions: 20 MHz
[7] = Luminescence lifetime measurements for inner-sphere water molecules q (Tb complexes); assay type: physicochemical; conditions: for kH2O, absolute emission depopulation rate constant: in H2O; for kH2O, absolute emission depopulation rate constant / kH2O (Table 1), absolute emission depopulation rate constant / q, hydration state: pH 6.9 (0.1 M Tris/HCl), 298 K; for kH2O, absolute emission depopulation rate constant / kH2O (Table 1), absolute emission depopulation rate constant: ±10%; for kH2O (Table 1), absolute emission depopulation rate constant: title names H2O and D2O; for q, hydration state: q^Tb = 5 (1/τH2O - 1/τD2O-0.06); for inner-sphere coordinated (bound) water molecules: luminescent measurements, pH 6.9
From the text: As previously mentioned, inner-sphere proton relaxivity is linearly proportional to the number of water molecules q that are directly coordinated to the Gd^3+ center. However, there is a trade-off between the q value and toxicity. […] It is noteworthy that there is no direct method of measuring the hydration number. The two commonly used indirect methods are as follows: (1) Lanthanide-induced shift (LIS) methods (see, Alpoim et al., J. Chem. Soc., Dalton Trans., 1992, 463). For paramagnetic Ln^3+ ions, the plot of the observed ^17O shift in Ln^3+ chelate solution versus the complex concentration gives a straight line, with the slope being proportional to its hydration number. (2) The lanthanide luminescence method. According to the Horrocks equation, the q value can be calculated by the emission rate constants for the depopulation of Tb^3+ or Eu^3+ complexes measured in H2O and D2O (see, Beeby at al., J. Chem. Soc., Perkin Trans. 2, 1999, 493). With this method, the q values of the Gd^3+ complexes in aqueous solution can be measured indirectly by their corresponding Tb^3+ or Eu^3+ complexes, because of the very similar coordination behavior between these three lanthanide ions.
Luminescence lifetime measurements were all obtained on a Perkin-Elmer LS 50B spectrofluorimeter with a 420 nm cut-off filter. The concentration of the complex was 1×10^−5˜1×10^−4 mol dm^−3. The emission of Tb^3+ or Eu^3+ complexes was monitored at […]. Gd^3+ is a neighbor of Eu^3+ and Tb^3+ with a nearly identical ionic radius, and thus their chemistries are virtually identical. Therefore, the Horrocks equation for determining the number of coordinated water molecules q for Eu^3+ and Tb^3+ is still valid for the calculation of the q value of Gd^3+. In general, the number of coordinated water molecules q can be determined by the measurement of the luminescent lifetime of the complexes separately in H2O and D2O by application of the Horrocks equation. q′corr=A′(kH2O−kD2O−a) where k is the constant for depopulation (reciprocal of luminescent lifetime), and A is a proportionality constant that signifies the sensitivity of the lanthanide ion to vibronic quenching by OH oscillators. a is correlation value for the consideration of the outer-sphere water molecules.

Row | Structure (SMILES) | D [1] | TR [1] | TV [1] | a [1] | q [1] | r [1] | Δ^2 [1] | TM ([2]; 25° C.) | kH2O, absolute emission depopulation rate constant [7] | kH2O (Table 1), absolute emission depopulation rate constant [7] | q, hydration state [7] | inner-sphere coordinated (bound) water molecules [7] | further results
1 | O=C([O-])CN(CCN(CC(=O)[O-])CC(=O)O)CCN(CC(=O)[O-])CC(=O)O.[Gd+3] [Gd-DTPA, reference compound] | 2.24E-5 cm^2s^−1 | 73 ps | 20 ps | 4.0 Å | 1 | 3.1 Å | 4.2e+19 s⁻¹ | 250 ns |  |  |  |  | r1p ([3]; 20 MHz, 298 K, typical values): 4.69 mM⁻¹ s⁻¹; bound water molecular resident lifetime TM ([3]; 298 K, typical values): ~303 ns
2 | CC(O)CN1CCN(CC(=O)[O-])CCN(CC(=O)[O-])CCN(CC(=O)[O-])CC1.[Gd+3] (stereo not shown) [Gd-[HP-DO3A]] |  |  |  |  |  |  |  |  |  |  |  |  | relaxivity ([3]; 40° C., 20 MHz): 3.65 mM⁻¹ s⁻¹
3 | O=C([O-])CN1CCN(CCOCC2COCCOCCOCCOCCO2)CCN(CC(=O)[O-])CCN(CC(=O)[O-])CC1.[Gd+3] (stereo not shown) [GdL2, Gd^3+ complex of L2] | 2.24E-5 cm^2s^−1 | 140 ps | 13 ps | 4.0 Å | 2 | 2.97 Å | 9e+19 s⁻¹ | 116 ns |  |  |  |  | water exchange rate kex^298 ([2]; 25° C.): 8.62e+06 s⁻¹; exchange lifetime TM of inner-sphere coordinated water [2]: 116 ns; q, inner-sphere coordinated water molecules [2]: about 2; renal enhancement left in less than an hour ([4]; 0.1 mmol/kg): 30%; maximal renal intensity enhancement (IE) [4]: 135%; hepatic IE level maintained for more than 4 h ([5]; 0.1 mmol/kg): > 60%; time after administration of maximal hepatic IE ([5]; 0.1 mmol/kg): 60 min; time for which strong/high hepatic IE was maintained ([5]; 0.1 mmol/kg): more than 4 h; maximal hepatic IE [5]: 100%; proton relaxivity r1 (r1p) ([6]; 25° C., pH 6.9): 9.36 mM⁻¹ s⁻¹; outer-sphere contribution to the overall observed proton relaxivity ([6]; pH 10.0): about 50%; outer-sphere relaxivity ([6]; pH 10.0): 2.1 mM⁻¹ s⁻¹; overall relaxivity ([6]; pH 10.0): 4.21 mM⁻¹ s⁻¹
4 | O=C([O-])CN1CCN(CC(=O)[O-])CCN(CC(=O)N2CCOCCOCCN(Cc3ccc4ccccc4n3)CCOCCOCC2)CCN(CC(=O)[O-])CC1.[Gd+3] [GdL3, Gd^3+ complex of L3] | 2.24E-5 cm^2s^−1 | 210 ps | 21 ps | 4.2 Å | 1 | 3.03 Å | 3e+19 s⁻¹ | 246 ns |  |  |  |  | reorientation lifetime TR [1]: 210 ps; exchange lifetime TM of inner-sphere coordinated water [2]: 246 ns; q, inner-sphere coordinated water molecules [2]: 1; maximal renal intensity enhancement (IE) [4]: 58%; hepatic IE level maintained for more than 4 h ([5]; 0.1 mmol/kg): about 50%; time for which strong/high hepatic IE was maintained ([5]; 0.1 mmol/kg): more than 4 h; maximal hepatic IE [5]: 59%; relaxivity ([6]; pH 7.4): 4.95 mM⁻¹ s⁻¹
5 | O=C([O-])CN1CCN(CC(=O)[O-])CCN(C(CO)C(O)CO)CCN(CC(=O)[O-])CC1.[Gd+3] (stereo not shown) [Gd[DO3A-butrol]] |  |  |  |  |  |  |  |  |  |  |  |  | relaxivity ([3]; 37° C., 20 MHz): 5.6 mM⁻¹ s⁻¹
6 | O=C([O-])CN1CCNCCN(CC(=O)[O-])CCN(CC(=O)[O-])CC1.[Tb+3] [Tb-DO3A, reference compound] |  |  |  |  |  |  |  |  | 0.88 ms^−1 | 0.42 ms^−1 | 2.0 |  | 
7 | O=C([O-])CN1CCN(CC(=O)[O-])CCN(CC(=O)[O-])CCN(CC(=O)[O-])CC1.[Tb+3] [Tb-DOTA, reference compound] |  |  |  |  |  |  |  |  | 0.48 ms^−1 | 0.27 ms^−1 | 0.8 |  | 
8 | O=C([O-])CN1CCN(CCN2CCOCCOCCOCCOCC2)CCN(CC(=O)[O-])CCN(CC(=O)[O-])CC1.[Tb+3] [TbL1] |  |  |  |  |  |  |  |  | 0.72 ms^−1 | 0.34 ms^−1 | 1.6 | two | 
9 | O=C([O-])CN1CCN(CCOCC2COCCOCCOCCOCCO2)CCN(CC(=O)[O-])CCN(CC(=O)[O-])CC1.[Tb+3] (stereo not shown) [TbL2] |  |  |  |  |  |  |  |  | 0.74 ms^−1 | 0.35 ms^−1 | 1.7 | two | 
10 | O=C([O-])CN1CCN(CC(=O)[O-])CCN(CC(=O)N2CCOCCOCCN(Cc3ccc4ccccc4n3)CCOCCOCC2)CCN(CC(=O)[O-])CC1.[Tb+3] [TbL3] |  |  |  |  |  |  |  |  | 0.50 ms^−1 | 0.31 ms^−1 | 0.7 | one | 
